Source: patent publication US12344610B2, “APOL1 inhibitors and methods of use” (Maze Therapeutics, Inc., priority 2022, dated 2025)

Columns and labels:
Assay type in all cases: cell-based
[1] = tested on: HEK293 cells overexpressing APOL1 G2; assay: APOL1 G2 HEK293 cell rescue assay (reversal of cell death caused by overexpression of APOL1); details: geometric mean of at least 2 assay runs, † = single assay run
Outline: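 Each compound tested in duplicate wells on one plate per run, with values usually the geometric mean across at least two runs on different days, occasionally from one run only. Read-out: concentration giving half-maximal rescue of APOL1 G2 overexpression-induced death of HEK293 cells.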

[2] = tested on: HEK293 clonal cell line overexpressing APOL1 G1; assay: APOL1 G1 HEK293 cell rescue assay (Example B3); details: geometric mean of at least 2 runs, † = single run, ¥ = concentration at 50% rescue estimated (no sigmoidal curve)
Outline: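 Rescue of cell death caused by APOL1 G1 overexpression was measured in a clonal HEK293 line. Compounds were tested in duplicate on one plate, and EC50s were geometric means across at least two runs on different days. Some values are estimated 50%-rescue concentrations where curve fitting failed.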

[3] = tested on: human immortalized podocytes inducibly expressing APOL1 G2; assay: APOL1 G2 podocyte cell rescue assay (Example B4); details: differentiated human podocytes, doxycycline-induced APOL1 G2, CellTiter-Glo, geometric mean of at least 2 runs, † = single run
Procedure: APOL1 G2 human immortalized podocyte viability assay for measurement of cytotoxicity reversal by compound (APOL1 G2 podocyte cell rescue assay).
Cell Handling. The hTERT-immortalized kidney podocyte cell line was procured from the laboratory of Dr. Moin Saleem at the University of Bristol, UK (Nephrology 17 (2012) 525-531; doi:10.1111/j.1440-1797.2012.01619.x; herein incorporated by reference in its entirety). Parental and engineered cell lines were cultured in RPMI 1640 media (Gibco, 11875093) with 10% Tet System Approved FBS (Takara, 631101). The engineered cell line was maintained under selection (2.5 μg/mL puromycin). Cell lines were maintained and engineered at 33° C. Cell cultures were transferred to 37° C. for 10 to 14 days to initiate differentiation (Nephrology 17 (2012) 525-531; doi:10.1111/j.1440-1797.2012.01619.x; herein incorporated by reference in its entirety). During this time, media was refreshed every 3 days. After differentiation, cells engineered to inducibly express APOL1 G2 were used in the podocyte cell rescue assay.
Cell Line Engineering. The APOL1 G2 coding sequence was cloned into the pLVX-TetOne-Puro vector and verified by sequencing (Genscript Biotech). This construct was designed to have a C-terminal HiBiT tag. Lentiviral packaging of the vector was conducted using the Lenti-X Packaging Single Shots (VSVG) system according to manufacturer instructions (Takara Bio, 631275). A stable cell line was generated by transfecting the parental podocyte cell line with the concentrated virus in media with 5 μg/mL polybrene (Sigma, TR-1003-G). Media was changed the following day. 72 hours post transfection, 2.5 μg/mL puromycin (Gibco, A1113803) was added to the cells and cells were maintained in selection media thereafter. This APOL1 G2 stable cellular pool was subjected to a stringent limiting dilution to generate a pure stable clone (Podocyte/pLVX-TetOne APOL1 G2/clone D10) capable of inducible expression of APOL1 G2.
Assay Setup. T175 flasks containing differentiated podocytes engineered to inducibly express APOL1 G2 (Podocyte/pLVX-TetOne APOL1 G2/clone D10) were washed once with 15 mL of DPBS (Thermo Fisher, 14190-144). These flasks were each trypsinized with 3 mL of prewarmed TrypLE Express (Gibco, 12605-010) and incubated at 37° C. with 5% CO2 until cells detached and neutralized with 7 mL of prewarmed assay media (RPMI 1640 media with 10% Tet System Approved FBS, no selection agent). Cells were pooled and the resulting suspension was gently mixed. The cell suspension was counted using a Countess Cell Counting Chamber (Invitrogen) and the cell concentration was adjusted to 240,000 cells/mL using assay media. Next, 25 μL of a 480 ng/mL working stock of doxycycline diluted in assay media was added to an assay ready plate. All experiments were performed in 384-well, white, solid bottom, tissue culture treated plates (Greiner, 781080). The assay ready compound plates were generated with duplicate 8-point compound dilution series that consisted of 3-fold stepwise dilutions (0.4% DMSO final). The plates were centrifuged at 1000 rpm for 1 minute. 25 μL of diluted cell suspension (final cell density=6,000 cells/well) was added to each well. The plates were centrifuged again at 1000 rpm for 1 minute and then incubated in a humidified incubator (37° C. with 5% CO2). After 95 hours, the assay plates were removed from the incubator and allowed to equilibrate to room temperature for 1 hour. CellTiter-Glo® reagent (Promega, G7570) was prepared according to the manufacturer's instructions. 25 μL of CellTiter-Glo® reagent was added to each well. Assay plates were sealed with foil and mixed for 5 minutes on an orbital shaker (500 rpm) to induce cell lysis. Plates were centrifuged at 1000 rpm for 1 minute. 10 minutes after CellTiter-Glo® reagent addition, an Envision plate reader (Perkin Elmer) was used to measure the luminescent signal of each assay plate. Collaborative Drug Discovery software was utilized for graphing data. […]

[4] = tested on: Trypanosoma brucei Lister 427 VSG221 with APOL1 G1 recombinant protein; assay: APOL1 G1 trypanosome cell rescue assay (Example B5); details: Trypanosoma brucei, 20 h, read-out: APOL1 G1 Trypanosome Rescue EC50, Trypanosoma brucei Lister 427 VSG221 with APOL1 G1 recombinant protein, 20 hours, CellTiter-Glo; geometric mean of at least 2 assay runs; † = single assay run
Outline: (§1)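 Recombinant APOL1 protein, dispensed from a 2 μg/mL stock, and 250 T. brucei per well were co-incubated with test compound (0.4% DMSO) for 20 h. Viability: CellTiter-Glo luminescence.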

[5] = tested on: Trypanosoma brucei Lister 427 VSG221 with APOL1 G0 recombinant protein; assay: APOL1 G0 trypanosome cell rescue assay (Example B5); details: Trypanosoma brucei, 20 h, read-out: APOL1 G0 Trypanosome Rescue EC50, Trypanosoma brucei Lister 427 VSG221 with APOL1 G0 recombinant protein, 20 hours, CellTiter-Glo; geometric mean of at least 2 assay runs; † = single assay run
Outline: as §1

[6] = tested on: Trypanosoma brucei Lister 427 VSG221 with APOL1 G2 recombinant protein; assay: APOL1 G2 trypanosome cell rescue assay (Example B5); details: Trypanosoma brucei, 20 h, read-out: APOL1 G2 Trypanosome Rescue EC50, Trypanosoma brucei Lister 427 VSG221 with APOL1 G2 recombinant protein, 20 hours, CellTiter-Glo; geometric mean of at least 2 assay runs; † = single assay run
Outline: as §1

[7] = Homo sapiens, HEK293, HEK293 overexpressing APOL1 G2
[8] = Homo sapiens, HEK293, HEK293 clonal line overexpressing APOL1 G1

| SMILES | EC50 [1, 7] [nM] | EC50 [2, 8] [nM] | EC50 [3] [nM] | EC50 ([1]; HEK293 overexpressing APOL1 G2) [nM] | EC50 ([2]; HEK293 clonal line overexpressing APOL1 G1) [nM] | EC50 ([3]; Homo sapiens) [nM] | EC50 [4] [nM] | EC50 [5] [nM] | EC50 [6] [nM] |
| --- | --- | --- | --- | --- | --- | --- | --- | --- | --- |
| O=C(NC1CCS(=O)(=O)C1)c1ccc(OCCN2CCC3(CC2)C(=O)Nc2ccc(Cl)cc23)cc1F (single isomer, unassigned) [Compound 242, 4-(2-{5-chloro-2-oxo-1,2-dihydrospiro[indole-3,4′-piperidin]-1′-yl}ethoxy)-N-[(3S) or (3R)-1,1-dioxo-1λ^6-thiolan-3-yl]-2-fluorobenzamide] | 74 | 316 | 19.7 | – | – | – | – | – | – |
| O=C(NC1CCS(=O)(=O)C1)c1ccc(OCCN2CCC3(CC2)C(=O)Nc2ccc(Cl)cc23)cc1F (single isomer, unassigned) [Compound 243, 4-(2-{5-chloro-2-oxo-1,2-dihydrospiro[indole-3,4′-piperidin]-1′-yl}ethoxy)-N-[(3R) or (3S)-1,1-dioxo-1λ^6-thiolan-3-yl]-2-fluorobenzamide] | – | – | 4.11 | 46 | 208 | – | – | – | – |
| O=C(NC1CCS(=O)(=O)CC1)c1ccc(OCCN2CCC3(CC2)C(=O)Nc2ccc(Cl)cc23)cc1F [Compound 240, 4-(2-{5-chloro-2-oxo-1,2-dihydrospiro[indole-3,4′-piperidin]-1′-yl}ethoxy)-N-(1,1-dioxo-1λ^6-thian-4-yl)-2-fluorobenzamide] | 52.6 | 282 | – | – | – | 13.9 | – | – | – |
| O=C1Nc2ccc(Cl)cc2C12CCN(CCOc1cnc(CCO)nc1)CC2 [Compound 331, 5-chloro-1′-(2-{[2-(2-hydroxyethyl)pyrimidin-5-yl]oxy}ethyl)-1,2-dihydrospiro[indole-3,4′-piperidin]-2-one] | 166 | 440 | – | – | – | 85.7 | – | – | – |
| C[C@]1(O)C[C@@H](n2c(=O)n(CO)c3cc(OCCN4CCC5(CC4)C(=O)Nc4ccc(C#N)cc45)cc(C(F)(F)F)c32)C1 [Compound 469, 1′-(2-{[3-(hydroxymethyl)-2-oxo-1-[(cis)-3-hydroxy-3-methylcyclobutyl]-7-(trifluoromethyl)-2,3-dihydro-1H-1,3-benzodiazol-5-yl]oxy}ethyl)-2-oxo-1,2-dihydrospiro[indole-3,4′-piperidine]-5-carbonitrile] | 19.9 | 48.7 | – | – | – | – | 15.5 | 9.76 | 5.33 |
